# Data from patent publication US20220387457A1 (Qlaris Bio, Inc., priority 2020, published 2022).
# “Also recorded” adds a separate entry of the source. Like-named read-outs stand apart in the source and are kept apart here.
# Legend:
# [1] = molecular target: T1, human Kir6.2/SUR2B KATP channel (Homo sapiens, UniProt O60706); experiment: FLIPR membrane potential assay in HEK-Kir6.2/SUR2B cells; type: cell-based; conditions: for hyperpolarization / activation of Kir6.2/SUR2B KATP channels: up to 100 μM
# T1 construct: expressed in transfected cells
# Method: The ability of CKLP1 and the active moiety of CKLP1, leveromakalim, to pharmacologically modulate the function of the human ATP-sensitive potassium channel comprised of Kir6.2 (encoded by the human gene KCNJ11) coupled to the sulfonylurea receptor SUR2B (encoded by the human gene ABCC9) was studied.
# Compounds were dissolved up to 10 mM stock solution in DMSO. Ten-point concentration response curves were generated at 100× concentration in 100% DMSO. Compound source plates were made by serially diluting 10 mM compound stocks in DMSO to generate a progressive semilog dilution schema. Dose response stock plate (10 μL) were then transferred into assay plates containing 90 μL of assay buffer, generating 10× working concentrations. Final assay test concentration ranges of 100 μM to 0.003 μM with a final DMSO concentration of 1.0%.
# Human embryonic kidney (HEK) cells stably expressing human Kir6.2/SUR2B KATP channel subunits were plated onto 96 well, black poly-d-lysine (PDL)-coated microplates and maintained in growth media the day prior to use for experiments. Media was removed from the plates and 90 μL of 1× stock of the membrane potential sensitive fluorescent dye FMP-Blue resuspended in assay buffer (EBSS—in mM: NaCl 145, KCl 2, Glucose 5, CaCl2) 1.8, MgCl2 0.8, HEPES 10, pH 7.4 with NaOH, 290-300 mOSm) was added to the cells. Cells were incubated at room temperature, protected from light, for 45-60 minutes. After the incubation period, cell, test compound and glibenclamide plates were loaded onto the fluorescence plate reader (FLIPR-TETRA™) and the scanning initiated. The FLIPR measured a 10 second baseline and then added 10 μL of 10× the final desired concentration of test agent. Changes in fluorescence were monitored for an additional 5 minutes. After the 5-minute compound incubation, 10 μL of the receptor inhibitor glibenclamide was added to the cell plate (10 uM final glibenclamide concentration). Changes in fluorescence was then monitored for an additional 5 minutes.
# Compound modulation of Kir6.2/SUR2B KATP channel mediated changes in cellular membrane potential was determined as follows. After the administration of compound, FMP fluorescence was monitored for a 5-minute period. The following parameters were recorded and exported from the FLIPR: the average relative fluorescence response (RFU) of 5 images taken at the 5-minute point in the assay with the average background EBSS buffer response subtracted. […] Test agent effect was calculated as % activation using the following formula: […]
# Curve fits were performed in GraphPad Prism graphing software using a 4-parameter, variable slope fit equation.
# [2] = Concentration of CKLP1 and levcromakalim in ocular and systemic tissues of hound dogs; type: in vivo, hound dog; conditions: for concentration at 23 h: hound, dog
# Method: After blood collection for pharmacokinetic studies, bilateral ocular treatment with CKLP1 (10 mM) continued in the hound dogs for 4-5 additional days.
# For ocular tissue collection, eyes were enucleated and aqueous humor, vitreous humor, trabecular meshwork, optic nerve, ciliary body, iris, retina and cornea were isolated and stored at −80° C. While collecting tissues during necropsy, portions of heart, kidney, lung, brain, liver and skeletal muscle were immediately frozen for pharmacodynamics analysis, while the remaining tissue samples were immediately fixed in 10% neutral buffered formalin.
# Immediately prior to analysis, tissues were thawed and their weight was measured. PBS was added at double the tissue volume homogenized in a rotor stator homogenizer for 30 seconds. […] Detection was accomplished using positive electrospray ionization with multiple-reaction monitoring (MRM). […] Data were acquired and analyzed using Waters MassLynx v4.1 software.
# [3] = Plasma pharmacokinetics, 28-day topical ophthalmic dosing in beagle dogs; conditions: dog, in vivo; for concentration at 336 h: both sexes
# Method: In the study, dogs (3 males and 3 females) received bilateral daily topical administration of 40 μL/eye of 2.0%, 4.0%, or 8.0% as measured in mg/mL (equivalent to 0.8, 1.6, or 3.2 mg CKLP1 per eye) of CKLP1 in phosphate buffered saline. Based on an average male dog weight of 7.9 kg at the start of the study, these doses were equivalent to 0.20 mg/kg, 0.41 mg/kg, or 0.81 mg/kg and based on an average female dog weight of 6.0 kg at the start of the study, these doses were equivalent to 0.27 mg/kg, 0.53 mg/kg, or 1.07 mg/kg. Blood was collected for toxicokinetic analysis pre-dose and at 1, 2, 4, 8, 12, and 24 hours post dosing on days 1 and 28. In addition, 2 animals of each gender were allowed 336 hours (14 days) of recovery time following the final dose, at which point final blood samples were obtained.
# [4] = aqueous humor, 23 hours after last dose, topical 10 mM CKLP1 12-13 days, two animals, read-out: concentration in aqueous humor
# [5] = ciliary body, 23 hours after last dose, topical 10 mM CKLP1 12-13 days, two animals, read-out: concentration in ciliary body
# [6] = cornea, 23 hours after last dose, topical 10 mM CKLP1 12-13 days, two animals, read-out: concentration in cornea
# [7] = heart, 23 hours after last dose, topical 10 mM CKLP1 12-13 days, read-out: concentration in heart
# [8] = iris, 23 hours after last dose, topical 10 mM CKLP1 12-13 days, two animals, read-out: concentration in iris
# [9] = kidney, 23 hours after last dose, topical 10 mM CKLP1 12-13 days, read-out: concentration in kidney
# [10] = optic nerve, 23 hours after last dose, topical 10 mM CKLP1 once daily 12-13 days, two animals, read-out: concentration in optic nerve
# [11] = retina, 23 hours after last dose, topical 10 mM CKLP1 12-13 days, two animals, read-out: concentration in retina
# [12] = trabecular meshwork, 23 hours after last dose, topical 10 mM CKLP1 12-13 days, two animals, read-out: concentration in trabecular meshwork
# [13] = vitreous humor, 23 hours after last dose, topical 10 mM CKLP1 12-13 days, two animals, read-out: concentration in vitreous humor
# [14] = beagle, terminal elimination half-life
# [15] = female, beagle, topical or ocular, 0.27 mg/kg
# [16] = female, beagle, topical or ocular, 1.07 mg/kg
# [17] = female, beagle, topical or ocular, […]
# [18] = male, beagle, topical or ocular, 0.2 mg/kg
# [19] = male, beagle, topical or ocular, 0.41 mg/kg
# [20] = male, beagle, topical or ocular, 0.81 mg/kg
# [21] = female, beagle, topical or ocular, 3.2 mg
# [22] = male, beagle, topical or ocular, 1.6 mg
# T1 sequence (O60706 1-1549 isoform O60706-2): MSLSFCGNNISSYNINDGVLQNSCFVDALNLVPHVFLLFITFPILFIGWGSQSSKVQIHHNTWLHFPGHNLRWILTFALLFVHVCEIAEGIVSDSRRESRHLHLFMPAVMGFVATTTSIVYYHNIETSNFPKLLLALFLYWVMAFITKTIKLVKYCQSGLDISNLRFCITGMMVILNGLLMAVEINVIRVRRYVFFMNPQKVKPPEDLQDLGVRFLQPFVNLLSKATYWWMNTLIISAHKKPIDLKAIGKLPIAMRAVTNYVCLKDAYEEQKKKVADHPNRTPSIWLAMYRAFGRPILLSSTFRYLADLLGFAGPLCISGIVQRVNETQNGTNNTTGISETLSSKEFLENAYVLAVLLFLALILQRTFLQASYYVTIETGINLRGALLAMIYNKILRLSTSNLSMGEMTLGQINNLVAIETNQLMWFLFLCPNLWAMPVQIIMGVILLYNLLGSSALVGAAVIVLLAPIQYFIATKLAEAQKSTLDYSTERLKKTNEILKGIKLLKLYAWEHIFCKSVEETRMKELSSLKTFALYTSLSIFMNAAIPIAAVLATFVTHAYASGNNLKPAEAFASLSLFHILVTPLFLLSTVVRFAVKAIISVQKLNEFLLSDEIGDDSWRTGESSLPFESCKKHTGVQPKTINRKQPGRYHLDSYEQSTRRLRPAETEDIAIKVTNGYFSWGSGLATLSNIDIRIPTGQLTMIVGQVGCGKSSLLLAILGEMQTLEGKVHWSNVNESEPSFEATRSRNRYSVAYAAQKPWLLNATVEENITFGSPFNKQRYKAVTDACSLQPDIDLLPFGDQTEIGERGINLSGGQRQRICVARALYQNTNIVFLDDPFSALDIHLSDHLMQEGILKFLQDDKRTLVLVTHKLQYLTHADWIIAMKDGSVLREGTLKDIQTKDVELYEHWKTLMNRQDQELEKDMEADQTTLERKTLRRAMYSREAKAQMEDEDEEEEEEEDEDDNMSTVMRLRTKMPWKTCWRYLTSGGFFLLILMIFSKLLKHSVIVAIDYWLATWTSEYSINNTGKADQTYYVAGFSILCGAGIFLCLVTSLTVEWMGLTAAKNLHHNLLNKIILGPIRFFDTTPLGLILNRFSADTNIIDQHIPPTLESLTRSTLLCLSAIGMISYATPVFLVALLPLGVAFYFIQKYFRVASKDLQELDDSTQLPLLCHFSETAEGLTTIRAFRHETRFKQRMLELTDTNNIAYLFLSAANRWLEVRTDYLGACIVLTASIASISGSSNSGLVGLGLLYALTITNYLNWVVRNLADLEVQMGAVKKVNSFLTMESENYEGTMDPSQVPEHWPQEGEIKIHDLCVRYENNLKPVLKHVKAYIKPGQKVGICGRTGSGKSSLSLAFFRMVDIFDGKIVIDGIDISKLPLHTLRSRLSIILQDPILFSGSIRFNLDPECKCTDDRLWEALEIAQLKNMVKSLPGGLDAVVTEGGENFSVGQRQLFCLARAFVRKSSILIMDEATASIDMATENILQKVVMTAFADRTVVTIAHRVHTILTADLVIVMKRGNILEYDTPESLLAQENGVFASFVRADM
# T1 sequence (Q14654 whole entry partner): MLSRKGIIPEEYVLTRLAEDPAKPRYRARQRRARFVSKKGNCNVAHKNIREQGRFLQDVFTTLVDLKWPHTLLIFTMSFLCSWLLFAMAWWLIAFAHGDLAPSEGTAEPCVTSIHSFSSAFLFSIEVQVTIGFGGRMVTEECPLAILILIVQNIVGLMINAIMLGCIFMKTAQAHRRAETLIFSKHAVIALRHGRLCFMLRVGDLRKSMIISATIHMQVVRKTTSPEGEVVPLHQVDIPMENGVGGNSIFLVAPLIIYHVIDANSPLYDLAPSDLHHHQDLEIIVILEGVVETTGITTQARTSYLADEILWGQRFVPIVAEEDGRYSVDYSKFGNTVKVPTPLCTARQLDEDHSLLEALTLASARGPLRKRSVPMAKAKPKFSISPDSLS
structure (smiles),measurement,setting,value
CC1(C)Oc2ccc(C#N)cc2[C@@H](N2CCCC2=O)[C@@H]1OP(=O)(O)O [CKLP1],EC50,"[1]; ability to modulate KATP channel, HEK-Kir6.2/SUR2B cells, normalized to 100 uM pinacidil, read-out: EC50 (μM) (mean ± SEM)",> 100 µM
same,Emax at 100 µM,"[1]; read-out: maximal response, % activation",9.4%
same,hyperpolarization / activation of Kir6.2/SUR2B KATP channels,[1],did not result in any significant hyperpolarization; also recorded: failed to produce any significant activation
same,concentration in lung,"[2]; 23 hours after last dose, topical 10 mM CKLP1 12-13 days",undetected
same,concentration at 23 h,[2]; [4],10.2 ± 14.4 ng/g
same,concentration at 23 h,[2]; [5],10.3 ± 8.1 ng/g
same,concentration at 23 h,[2]; [6],31.3 ± 10.8 ng/g
same,concentration at 23 h,[2]; [7],3.7 ± 0.5 ng/g
same,concentration at 23 h,[2]; [8],4.8 ± 1.1 ng/g
same,concentration at 23 h,[2]; [9],2.7 ± 2.9 ng/g
same,concentration at 23 h,[2]; [10],63.8 ± 63.1 ng/g
same,concentration at 23 h,[2]; [11],6.2 ± 3.8 ng/g
same,concentration at 23 h,[2]; [12],170 ± 21.6 ng/g
same,concentration at 23 h,[2]; [13],24.4 ± 2.4 ng/g
same,concentration in urine,[2]; topical 10 mM CKLP1 12-13 days,88.0 ± 134.9 ng/mL
same,half-life,"[3]; beagle, mean T1/2 of CKLP1",199 to 371 min
same,half-life,[3]; [14],180 to 360 min
same,concentration at 336 h,[3]; beagle,< 2 ng/mL
same,"predose levels of CKLP1 on day 28, times lower than peak plasma concentrations","[3]; both, beagle",16-25 times
same,accumulation of CKLP1 on day 28 relative to day 1,[3],no accumulation
same,time of Cmax of CKLP1,[3],1 to 2 h
same,AUC0-last,[3]; [15],545 ng·h/mL
same,AUC(0-inf),[3]; [15],660 ng·h/mL
same,Cmax,[3]; [15],80.2 ng/mL
same,Tmax,[3]; [15],2 h
same,t1/2,[3]; [15],3.68 h
same,AUC(0-t),"[3]; female, beagle, topical or ocular, 0.27 mg/kg, AUC0-last",496 ng·h/mL
same,Cmax,"[3]; female, beagle, topical or ocular, 0.27 mg/kg, Cmax",55.5 ng/mL
same,half-life,"[3]; female, beagle, topical or ocular, 0.27 mg/kg, t1/2",247 min
same,AUC0-last,[3]; [16],1200 ng·h/mL
same,AUC(0-inf),[3]; [16],1860 ng·h/mL
same,Cmax,[3]; [16],139 ng/mL
same,Tmax,[3]; [16],2 h
same,t1/2,[3]; [16],5.15 h
same,AUC(0-t),"[3]; female, beagle, topical or ocular, 1.07 mg/kg, AUC0-last",1480 ng·h/mL
same,Cmax,"[3]; female, beagle, topical or ocular, 1.07 mg/kg, Cmax",156 ng/mL
same,half-life,"[3]; female, beagle, topical or ocular, 1.07 mg/kg, t1/2",295 min
same,AUC0-last,[3]; [17],1750 ng·h/mL
same,Tmax,[3]; [17],2 h
same,half-life,"[3]; female, beagle, topical or ocular, […], t1/2",371 min
same,AUC0-last,[3]; [18],272 ng·h/mL
same,AUC(0-inf),[3]; [18],299 ng·h/mL
same,Cmax,[3]; [18],47.0 ng/mL
same,Tmax,[3]; [18],1 h
same,t1/2,[3]; [18],3.44 h
same,AUC(0-t),"[3]; male, beagle, topical or ocular, 0.2 mg/kg, AUC0-last",231 ng·h/mL
same,Cmax,"[3]; male, beagle, topical or ocular, 0.2 mg/kg, Cmax",36.5 ng/mL
same,half-life,"[3]; male, beagle, topical or ocular, 0.2 mg/kg, t1/2",221 min
same,AUC0-last,[3]; [19],381 ng·h/mL
same,AUC(0-inf),[3]; [19],571 ng·h/mL
same,Cmax,[3]; [19],57.3 ng/mL
same,Tmax,[3]; [19],1 h
same,t1/2,[3]; [19],3.32 h
same,AUC(0-t),"[3]; male, beagle, topical or ocular, 0.41 mg/kg, AUC0-last",520 ng·h/mL
same,Cmax,"[3]; male, beagle, topical or ocular, 0.41 mg/kg, Cmax",73.7 ng/mL
same,half-life,"[3]; male, beagle, topical or ocular, 0.41 mg/kg, t1/2",256 min
same,AUC0-last,[3]; [20],1260 ng·h/mL
same,AUC(0-inf),[3]; [20],1580 ng·h/mL
same,Tmax,[3]; [20],2 h
same,t1/2,[3]; [20],5.08 h
same,AUC(0-t),"[3]; male, beagle, topical or ocular, 0.81 mg/kg, AUC0-last",1520 ng·h/mL
same,Cmax,"[3]; male, beagle, topical or ocular, 0.81 mg/kg, CKLP1, Male, topical 8.0% CKLP1 daily, Day 1, read-out: Cmax",166 ng/mL
same,Cmax,"[3]; male, beagle, topical or ocular, 0.81 mg/kg, CKLP1, Male, topical 8.0% CKLP1 daily, Day 28, read-out: Cmax",147 ng/mL
same,half-life,"[3]; male, beagle, topical or ocular, 0.81 mg/kg, t1/2",289 min
same,Cmax,"[3]; male, beagle, topical or ocular, 8 %, day 28, males, read-out: mean Cmax at NOAEL",147 ng/mL
same,AUC(0-t),"[3]; male, beagle, topical or ocular, 8.0%, day 28, males, read-out: mean AUC Tlast at NOAEL",1260 ng·h/mL
"CC1(C)Oc2ccc(C#N)cc2[C@@H](N2CCCC2=O)[C@@H]1O [Levcromakalim, levcromakalim, reference compound]",hyperpolarization reversed by coadministration of glibenclamide,[1]; glibenclamide 10 μM,reversed
same,hyperpolarization / activation of Kir6.2/SUR2B KATP channels,[1],concentration-dependent hyperpolarization
same,concentration at 23 h,[2]; [4],1.1 ± 1.5 ng/mL
same,concentration at 23 h,[2]; [5],< 1 ng/g
same,concentration at 23 h,[2]; [6],1.4 ± 0.3 ng/g
same,concentration at 23 h,[2]; [7],0.9 ± 0.8 ng/g
same,concentration at 23 h,[2]; [8],< 1 ng/g
same,concentration at 23 h,[2]; [9],0.8 ± 1.2 ng/g
same,concentration at 23 h,"[2]; lung, 23 hours after last dose, topical 10 mM CKLP1 12-13 days, read-out: concentration in lung",0.3 ± 0.4 ng/g
same,concentration at 23 h,[2]; [10],< 1 ng/g
same,concentration at 23 h,[2]; [11],< 1 ng/g
same,concentration at 23 h,[2]; [12],2 ± 0.5 ng/g
same,concentration at 23 h,[2]; [13],< 1 ng/g
same,concentration in urine,[2]; topical 10 mM CKLP1 12-13 days,3.7 ± 4.5 ng/mL
same,half-life,"[3]; beagle, mean T1/2 of levcromakalim",124 to 294 min
same,half-life,[3]; [14],120 to 300 min
same,concentration at 336 h,[3]; beagle,< 0.499 ng/mL
same,AUC(0-inf),[3]; [15],96.8 ng·h/mL
same,AUC(0-inf),[3]; [21],304 ng·h/mL
same,t1/2,[3]; [21],2.73 h
same,half-life,"[3]; female, beagle, topical or ocular, 3.2 mg, t1/2",294 min
same,AUC(0-inf),[3]; [17],131 ng·h/mL
same,AUC(0-inf),"[3]; male, beagle, topical or ocular",111 ng·h/mL
same,AUC(0-inf),[3]; [22],185 ng·h/mL
same,Tmax,[3]; [22],4 h
same,AUC(0-inf),"[3]; male, beagle, topical or ocular, 3.2 mg",371 ng·h/mL
